How the values were obtained:
[1] = tested on: femoral allograft; test: Mouse femoral allograft, torsion testing of grafted femurs (Example 1); assay type: in vivo, C57B1/6 mice
Procedure: Femoral allograft surgeries were performed on C57B1/6 mice as previously described. Briefly, a 4 mm mid-diaphyseal segment was removed by osteotomizing the femur and a processed allograft was implanted and secured in place with a stainless steel intramedullary (IM) pin. After 1 week, 8 mice were given daily subcutaneously injections of 0.4 mg/kg PTH (1-34) (Forteo, Eli Lilly and Company, Indianapolis, Ind.) while 5 mice with grafts were given the same volume of saline daily, serving as controls. Animals were sacrificed 6 weeks after surgery, the grafted femurs were carefully dissected and cleaned without disrupting the callus, and the IM pin was carefully removed. The femurs were then stored frozen at −80° C. until evaluation. After imaging, the ends of the femurs were cemented into 6.35 mm square aluminum tubes using PMMA in a custom jig to ensure axial alignment and maintain a gage length of 7.3±0.8 mm. Samples were then mounted on an EnduraTec TestBench™ system with a 200 N·mm torque cell (Bose Corp., Minnetonka, Minn.) and tested in torsion at a rate of […] until failure to determine the torsional stiffness, ultimate torque, ultimate rotation, and strain energy to failure. Mode of Failure was determined by x-ray after testing. As described previously (Reynolds D G, et al; J. Biomech. 2007; E-pub May 22) the mode of failure can be categorized by location of the failure. “Pre-union” failures occur at the graft-host junction resulting in an intact graft that simply pulled out from the callus. “Early union” failures occur near the graft-host junction, but involve partial fragmentation of the graft or host bone.

[2] = tested on: critical 4 mm femoral defects; test: PLA and PLA/βTCP scaffold reconstruction of critical 4 mm femoral defects, micro-CT and torsion (Example 2); assay type: in vivo, mouse
Excerpt: (scale bars 25 in B & C represent 200 microns. Arrow head in panel C points to βTCP particles). Titanium pins 30 were passed through the lumen of the scaffolds 15 (panel D) to be used for fixation of the scaffolds when implanted as standalone femoral graft substitutes in critical 4 mm femoral defects in our previously established mouse model (see Example 1). The grafted animals were either treated with daily (5 days/week) injections of PTH or left untreated (Controls). […] When grafts were harvested at 9 weeks and following micro-CT imaging, scaffold-grafted femurs were tested in torsion at a rate of 1°/sec. […] The scaffold-grafted femurs were tested in torsion to determine their biomechanical properties, including maximum torque (panels A&B), torsional rigidity (panels C&D), and ultimate normalized rotation or twist (panels E&F). Panels A, C, and E show the average properties for both scaffold types in control and PTH treated animals. Panels B, D, and F show the maximum torque, torsional rigidity, and ultimate twist, respectively, of specimens that developed a bridging union compared to non-union control and PTH-treated specimens. Data are presented as mean+SEM. Asterisk indicates significant differences from control (p<0.05).

[3] = tested on: femoral allograft; test: Mouse femoral allograft, micro-CT of callus (Example 1); assay type: in vivo, C57B1/6 mice
Procedure: Femoral allograft surgeries were performed on C57B1/6 mice as previously described. Briefly, a 4 mm mid-diaphyseal segment was removed by osteotomizing the femur and a processed allograft was implanted and secured in place with a stainless steel intramedullary (IM) pin. After 1 week, 8 mice were given daily subcutaneously injections of 0.4 mg/kg PTH (1-34) (Forteo, Eli Lilly and Company, Indianapolis, Ind.) while 5 mice with grafts were given the same volume of saline daily, serving as controls. Animals were sacrificed 6 weeks after surgery, the grafted femurs were carefully dissected and cleaned without disrupting the callus, and the IM pin was carefully removed. The femurs were then stored frozen at −80° C. until evaluation. Specimens were scanned at 10.5 micron isotropic resolution using a Scanco VivaCT 40 (Scanco Medical AG, Bassersdorf, Switzerland). Callus bone volume adjacent to the graft was manually segmented from all axial slices that contained grafted bone. The mineralized callus volume, callus bone mineral density (BMD) and total mineral content (BMC) were determined.

[4] = tested on: callus vasculature of grafted femurs; test: Callus vascularization by micro-CT after vascular perfusion (Example 4); assay type: in vivo, mice; details: for vessel volume within callus, more in saline treated than PTH treated specimens: not significant, n=4 per group
Procedure: A second cohort of 16 animals underwent the same surgery with sacrifice of 8 animals at 4 weeks and 8 animals at 6 weeks post-surgery to evaluate the degree of vascularization of the graft and callus region using vascular profusion as described previously (Duvall 2004). Half of the animals were treated with PTH, and the other half with saline.
On the day of sacrifice, animals were injected with a fatal dose of ketamine and xylazine and their vasculature was perfused using a syringe pump through a needle placed into the left ventricle of the heart. The right atrium was also punctured to allow the blood to drain out. They were first perfused with heparinized (100 units/ml) saline to prevent blood clotting, followed by 10% neutral-buffered formalin, and lastly with lead-chromate contrast agent (Microfil 122, Flow Tech, Inc. Carver, Mass.). Samples were fixed in 10% formalin overnight followed by harvest of the femur and pin extraction. Samples were micro-CT scanned once after fixation, and again after EDTA decalcification. Using both scans the vasculature was evaluated within the mineralized callus. The vessel volume, thickness, spacing and vessel number was determined.

[5] = 0.4 mg/kg PTH (1-34) s.c. daily, 6 weeks after surgery, Mean (Standard Deviation)
[6] = of 8 PTH treated mice, all 5 controls pre-union
[7] = 0.4 mg/kg PTH (1-34) s.c. daily from week 1, 6 weeks after surgery, Mean (Standard Deviation)
[8] = vs saline, 6 weeks after surgery

Compound: CC[C@H](C)[C@H](NC(=O)[C@H](CCC(=O)O)NC(=O)[C@H](CO)NC(=O)[C@@H](NC(=O)[C@@H](N)CO)C(C)C)C(=O)N[C@@H](CCC(N)=O)C(=O)N[C@@H](CC(C)C)C(=O)N[C@@H](CCSC)C(=O)N[C@@H](Cc1cnc[nH]1)C(=O)N[C@@H](CC(N)=O)C(=O)N[C@@H](CC(C)C)C(=O)NCC(=O)N[C@@H](CCCCN)C(=O)N[C@@H](Cc1cnc[nH]1)C(=O)N[C@@H](CC(C)C)C(=O)N[C@@H](CC(N)=O)C(=O)N[C@@H](CO)C(=O)N[C@@H](CCSC)C(=O)N[C@@H](CCC(=O)O)C(=O)N[C@@H](CCCN=C(N)N)C(=O)N[C@H](C(=O)N[C@@H](CCC(=O)O)C(=O)N[C@@H](Cc1c[nH]c2ccccc12)C(=O)N[C@@H](CC(C)C)C(=O)N[C@@H](CCCN=C(N)N)C(=O)N[C@@H](CCCCN)C(=O)N[C@@H](CCCCN)C(=O)N[C@@H](CC(C)C)C(=O)N[C@@H](CCC(N)=O)C(=O)N[C@@H](CC(=O)O)C(=O)N[C@H](C(=O)N[C@@H](Cc1cnc[nH]1)C(=O)N[C@@H](CC(N)=O)C(=O)N[C@@H](Cc1ccccc1)C(=O)O)C(C)C)C(C)C [PTH, PTH (1-34)]
- Energy to failure [1, 5]: 0.25 (0.31)
- Normalized Rotation at TUlt [1, 5]: 0.97 (0.23) deg/mm gage length
- Ultimate Torque [1, 5]: 13.5 (4.7) N*mm
- normalized rotation at peak torque ([1]; 6 weeks): 0.97 degrees per mm of gage length
- stiffness as share of normal unoperated femur properties ([1]; after 6 weeks of healing): ~120%
- strength as share of normal unoperated femur properties ([1]; after 6 weeks of healing): ~67%
- specimens failing in "early union" mode [1, 6]: 2
- specimens with "mature union" failure [1, 6]: 1
- enhancement in ultimate torque ([1]; vs saline, 6 weeks): 1.65 fold
- stiffness relative to saline (times stiffer) ([1]; vs saline, 6 weeks): 3.3 times
- animals that developed a mineralized callus bridging the defect (union) ([2]; 9 weeks post-reconstruction, both scaffolds, daily (5 days/week) PTH, none in controls): 30%
- torsion behavior of bridged grafts ([2]; 9 weeks, torsion at 1°/sec): prototypical brittle bone torsion behavior
- biomechanical properties of scaffold-grafted femurs (maximum torque, torsional rigidity, ultimate twist) ([2]; 9 weeks, vs control): improved the biomechanical properties of the scaffold-grafted femurs especially in femurs with bridging unions
- volume of the mineralized callus ([2]; PLA and PLA/βTCP scaffolds, 6 and 9 weeks post-reconstruction, vs control): increased the volume of the mineralized callus regardless of the scaffold type
- Callus BMC [3, 7]: 2.77 (0.53) mg HA
- Callus BMD [3, 7]: 665 (17) mg HA/cm^3
- Callus Bone Volume [3, 7]: 4.17 (0.80) mm^3
- samples with callus bridging the graft from host to host ([3]; 6 weeks after surgery, saline 20%): 63%
- increase in callus bone volume [3, 8]: 1.9 fold
- net increase in total callus mineral content [3, 8]: 60%
- reduction in callus BMD [3, 8]: 13%
- vessel volume within callus, more in saline treated than PTH treated specimens ([4]; 4 weeks): 74%
- blood vessel diameter, greater in saline treated than PTH treated specimens ([4]; 4 weeks, p=0.05): 55%
- blood vessel diameter, greater in saline treated than PTH treated specimens ([4]; 6 weeks): 78%
- vessel volume within callus, more in saline treated than PTH treated specimens ([4]; 6 weeks): 88%
- specimens in which the intramedullary blood vessel had bridged the length of the graft ([4]; by 6 weeks, saline 3 of 4): 4 of 4
